Results: US6706663B2, “Herbicidal 3-heterocyclic substituted benzisothiazole and benzisoxazole compounds” (Wyeth, priority 2000, dated 2004)

Experiments:
[1] = system: IPOHE (Ipomoea hederacea); assay: Postemergence herbicidal evaluation; assay type: in vivo, (L.) Jacq.
In short: (§1)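 Seedlings grown about two weeks in flats, sprayed, then kept under standard greenhouse care. Rated visually 4–5 weeks after treatment on a 0–9 scale (stand, vigour, malformation, size, chlorosis, overall appearance) relative to untreated control; repeat tests averaged.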

[2] = system: SAGPY (Sagittaria pygmaea); assay: Flooded paddy, preemergence weed control; assay type: in vivo, L.; conditions: rated 3-4 weeks after treatment, 0-9 rating scale
In short: (§2)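 Seeds or propagating organs were sown in the top 0.5 cm of silt loam soil, flooded, and the water kept 1.5 to 3 cm above the soil surface throughout. Plants were grown in the greenhouse and rated visually on a 0-9 scale against a control.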

[3] = system: IPOHE (Ipomoea hederacea); assay: Preemergence herbicidal evaluation; assay type: in vivo, (L.) Jacq.; conditions: preemergence, rated 4-5 weeks after treatment
[4] = system: GLXMAW (Soybean, Williams); assay: Postemergence herbicidal evaluation; assay type: in vivo, Glycine max, (L.) Merr. cv Williams
In short: as §1

ZEAMX (Corn, Field) [5] = assay: Postemergence herbicidal evaluation; assay type: in vivo, Zea mays, L.
In short: as §1

ZEAMX (Corn, Field) [6] = assay: Preemergence herbicidal evaluation; assay type: in vivo, Zea mays, L.; conditions: preemergence, rated 4-5 weeks after treatment
[7] = system: ABUTH (Abutilon theophrasti); assay: Postemergence herbicidal evaluation; assay type: in vivo, Medic.
In short: as §1

[8] = system: CHEAL (Chenopodium album); assay: Preemergence herbicidal evaluation; assay type: in vivo, L.; conditions: preemergence, rated 4-5 weeks after treatment
In short: (§3)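 Visual 0–9 rating versus control (stand, vigor, malformation, size, chlorosis, overall appearance), scored four to five weeks post-treatment. Preemergence spray of aqueous acetone solution onto freshly seeded soil cups; plants grown under conventional greenhouse care.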

[9] = system: CASOB (Cassia obtusifolia); assay: Preemergence herbicidal evaluation; assay type: in vivo, L.; conditions: preemergence, rated 4-5 weeks after treatment
In short: as §3

[10] = system: AMBEL (Ambrosia artemisifolia); assay: Preemergence herbicidal evaluation; assay type: in vivo, L.; conditions: preemergence, rated 4-5 weeks after treatment
In short: as §3

ORYSAT (Rice, Tebonnet) = assay: Preemergence herbicidal evaluation; assay type: in vivo, Oryza sativa, (L.) Tebonnet; conditions: preemergence, rated 4-5 weeks after treatment
[11] = system: ECHORC (Echinochloa oryzoides); assay: Flooded paddy, preemergence weed control; assay type: in vivo, Echinochloa oryzoides (Ard.) Fritsch.; conditions: rated 3-4 weeks after treatment, 0-9 rating scale
In short: as §2

[12] = system: ECHCG (Echinochloa crus-galli); assay: Postemergence herbicidal evaluation; assay type: in vivo, (L.) Beau
In short: as §1

GALAP (Galium aparine) [13] = assay: Postemergence herbicidal evaluation; assay type: in vivo
In short: as §1

[14] = system: CYPSE (Cyperus serotinus); assay: Flooded paddy, preemergence weed control; assay type: in vivo, Rottb.; conditions: rated 3-4 weeks after treatment, 0-9 rating scale
In short: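 Herbicidal effect was scored visually on a 0–9 scale against an untreated control 3–4 weeks after treatment. Compounds were applied preemergence as 50/50 v/v aqueous/acetone mixtures into flood water (1.5–3 cm deep over silt loam), at roughly 0.0080 to 0.1250 kg/ha active ingredient.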

[15] = system: CHEAL (Chenopodium album); assay: Postemergence herbicidal evaluation; assay type: in vivo, L.
In short: as §1

[16] = system: CASOB (Cassia obtusifolia); assay: Postemergence herbicidal evaluation; assay type: in vivo, L.
In short: as §1

[17] = system: AMBEL (Ambrosia artemisifolia); assay: Postemergence herbicidal evaluation; assay type: in vivo, L.
In short: as §1

GALAP (Galium aparine) [18] = assay: Preemergence herbicidal evaluation; assay type: in vivo; conditions: preemergence, rated 4-5 weeks after treatment
In short: as §3

[19] = system: TRZAWR (Wheat, Winter, cv Riband); assay: Preemergence herbicidal evaluation; assay type: in vivo, Triticum aestivum; conditions: preemergence, rated 4-5 weeks after treatment
In short: as §3

[20] = system: GLXMAW (Soybean, Williams); assay: Preemergence herbicidal evaluation; assay type: in vivo, Glycine max, (L.) Merr. cv Williams; conditions: preemergence, rated 4-5 weeks after treatment
CYPIR (Cyperus iria) = assay: Flooded paddy, preemergence weed control; assay type: in vivo; conditions: rated 3-4 weeks after treatment, 0-9 rating scale
In short: as §2

## Cn1c(C(F)(F)F)cc(=O)n(-c2ccc3snc(-c4ccsc4)c3c2)c1=O [Compound 1, 1-methyl-3-[3-(3-thienyl)-1,2-benzisothiazol-5-yl]-6-(trifluoromethyl)uracil]
[1]; rate 0.0320 kg/ha
  Postemergence herbicidal rating, IPOHE: 9.0
[1]; rate 0.0620 kg/ha
  Postemergence herbicidal rating, IPOHE: 9.0
[1]; rate 0.1250 kg/ha
  Postemergence herbicidal rating, IPOHE: 9.0
[2]; rate 0.0080 kg/ha
  herbicidal rating, SAGPY: 4.0
[2]; rate 0.0320 kg/ha
  herbicidal rating, SAGPY: 4.0
[2]; rate 0.1250 kg/ha
  herbicidal rating, SAGPY: 5.5
[3]; Rate 0.0620 kg/ha
  IPOHE preemergence herbicidal rating: 8.0
[3]; Rate 0.1250 kg/ha
  IPOHE preemergence herbicidal rating: 9.0
[3]; Rate 0.2500 kg/ha
  IPOHE preemergence herbicidal rating: 9.0
[4]; rate 0.0320 kg/ha
  Postemergence herbicidal rating, GLXMAW: 6.8
[4]; rate 0.0620 kg/ha
  Postemergence herbicidal rating, GLXMAW: 7.0
[4]; rate 0.1250 kg/ha
  Postemergence herbicidal rating, GLXMAW: 7.8
ZEAMX (Corn, Field) [5]; rate 0.0320 kg/ha
  Postemergence herbicidal rating, ZEAMX: 5.5
ZEAMX (Corn, Field) [5]; rate 0.0620 kg/ha
  Postemergence herbicidal rating, ZEAMX: 5.8
ZEAMX (Corn, Field) [5]; rate 0.1250 kg/ha
  Postemergence herbicidal rating, ZEAMX: 6.0
ZEAMX (Corn, Field) [6]; Rate 0.0620 kg/ha
  ZEAMX preemergence herbicidal rating: 6.0
ZEAMX (Corn, Field) [6]; Rate 0.1250 kg/ha
  ZEAMX preemergence herbicidal rating: 6.7
ZEAMX (Corn, Field) [6]; Rate 0.2500 kg/ha
  ZEAMX preemergence herbicidal rating: 7.0
[7]; rate 0.0320 kg/ha
  Postemergence herbicidal rating, ABUTH: 9.0
[7]; rate 0.0620 kg/ha
  Postemergence herbicidal rating, ABUTH: 9.0
[7]; rate 0.1250 kg/ha
  Postemergence herbicidal rating, ABUTH: 9.0
[8]; Rate 0.0620 kg/ha
  CHEAL preemergence herbicidal rating: 9.0
[8]; Rate 0.1250 kg/ha
  CHEAL preemergence herbicidal rating: 9.0
[8]; Rate 0.2500 kg/ha
  CHEAL preemergence herbicidal rating: 9.0
[9]; Rate 0.0620 kg/ha
  CASOB preemergence herbicidal rating: 7.3
[9]; Rate 0.1250 kg/ha
  CASOB preemergence herbicidal rating: 8.3
[9]; Rate 0.2500 kg/ha
  CASOB preemergence herbicidal rating: 8.3
[10]; Rate 0.0620 kg/ha
  AMBEL preemergence herbicidal rating: 7.3
[10]; Rate 0.1250 kg/ha
  AMBEL preemergence herbicidal rating: 9.0
[10]; Rate 0.2500 kg/ha
  AMBEL preemergence herbicidal rating: 9.0
ORYSAT (Rice, Tebonnet); Rate 0.0620 kg/ha
  ORYSAT preemergence herbicidal rating: 5.0
ORYSAT (Rice, Tebonnet); Rate 0.1250 kg/ha
  ORYSAT preemergence herbicidal rating: 5.0
ORYSAT (Rice, Tebonnet); Rate 0.2500 kg/ha
  ORYSAT preemergence herbicidal rating: 6.5
[11]; rate 0.0080 kg/ha
  herbicidal rating, ECHORC: 6.0
[11]; rate 0.0320 kg/ha
  herbicidal rating, ECHORC: 9.0
[11]; rate 0.1250 kg/ha
  herbicidal rating, ECHORC: 9.0
[12]; rate 0.0320 kg/ha
  Postemergence herbicidal rating, ECHCG: 2.0
[12]; rate 0.0620 kg/ha
  Postemergence herbicidal rating, ECHCG: 2.5
[12]; rate 0.1250 kg/ha
  Postemergence herbicidal rating, ECHCG: 4.0
GALAP (Galium aparine) [13]; rate 0.0320 kg/ha
  Postemergence herbicidal rating, GALAP: 5.0
GALAP (Galium aparine) [13]; rate 0.0620 kg/ha
  Postemergence herbicidal rating, GALAP: 6.5
GALAP (Galium aparine) [13]; rate 0.1250 kg/ha
  Postemergence herbicidal rating, GALAP: 7.5
[14]; rate 0.0320 kg/ha
  herbicidal rating, CYPSE: 3.5
[14]; rate 0.1250 kg/ha
  herbicidal rating, CYPSE: 9.0
[15]; rate 0.0320 kg/ha
  Postemergence herbicidal rating, CHEAL: 9.0
[15]; rate 0.0620 kg/ha
  Postemergence herbicidal rating, CHEAL: 9.0
[15]; rate 0.1250 kg/ha
  Postemergence herbicidal rating, CHEAL: 9.0
[16]; rate 0.0320 kg/ha
  Postemergence herbicidal rating, CASOB: 5.5
[16]; rate 0.0620 kg/ha
  Postemergence herbicidal rating, CASOB: 7.5
[16]; rate 0.1250 kg/ha
  Postemergence herbicidal rating, CASOB: 9.0
[17]; rate 0.0320 kg/ha
  Postemergence herbicidal rating, AMBEL: 9.0
[17]; rate 0.0620 kg/ha
  Postemergence herbicidal rating, AMBEL: 9.0
[17]; rate 0.1250 kg/ha
  Postemergence herbicidal rating, AMBEL: 9.0
GALAP (Galium aparine) [18]; Rate 0.0620 kg/ha
  GALAP preemergence herbicidal rating: 9.0
GALAP (Galium aparine) [18]; Rate 0.1250 kg/ha
  GALAP preemergence herbicidal rating: 7.0
GALAP (Galium aparine) [18]; Rate 0.2500 kg/ha
  GALAP preemergence herbicidal rating: 6.5
[19]; Rate 0.0620 kg/ha
  TRZAWR preemergence herbicidal rating: 3.5
[19]; Rate 0.1250 kg/ha
  TRZAWR preemergence herbicidal rating: 4.0
[19]; Rate 0.2500 kg/ha
  TRZAWR preemergence herbicidal rating: 5.0
[20]; Rate 0.0620 kg/ha
  GLXMAW preemergence herbicidal rating: 7.0
[20]; Rate 0.1250 kg/ha
  GLXMAW preemergence herbicidal rating: 9.0
[20]; Rate 0.2500 kg/ha
  GLXMAW preemergence herbicidal rating: 9.0
CYPIR (Cyperus iria); rate 0.0080 kg/ha
  herbicidal rating, CYPIR: 9.0
CYPIR (Cyperus iria); rate 0.0320 kg/ha
  herbicidal rating, CYPIR: 9.0
CYPIR (Cyperus iria); rate 0.1250 kg/ha
  herbicidal rating, CYPIR: 9.0
